Measurements: patent publication US20240228480A1, “PROCESSES FOR PREPARING PYRROLOPYRIDINE-ANILINE COMPOUNDS” (NFLECTION THERAPEUTICS, INC., priority 2021, published 2024)
“Also recorded” adds a separate entry of the source.

Tests used:
[1] = Stability of Compound (II) suspended in various solvents (slurry experiment, HPLC area %); assay type: physicochemical
Text: Therefore, the first course of action was to find a suitable solvent in which to suspend compound (II) for the addition to the first mixture of step 6a).

[2] = clinical trials; cited from earlier work

In the case of Cn1c(Nc2ccc(I)cc2F)c(C(=O)Cl)c2cccnc21 [Compound (II)], the “Area % t = 10 min” value ([1]; solvent 2-Me-THF) is reported as 88.0 Area %, the “Area % t = 2 h” value ([1]; solvent 2-Me-THF) is reported as 77.8 Area % and the “Area % t = 17 h” value ([1]; solvent 2-Me-THF) is reported as 75.3 Area %. For the same compound, the “Area % t = 10 min” value ([1]; solvent DCM) was 91.4 Area %, the “Area % t = 2 h” value ([1]; solvent DCM) was 90.5 Area % and the “Area % t = 17 h” value ([1]; solvent DCM) was 85.3 Area %. The “Area % t = 10 min” value ([1]; solvent Heptane) was “*68.6 Area %”, the “Area % t = 2 h” value ([1]; solvent Heptane) was 88.4 Area % and the “Area % t = 17 h” value ([1]; solvent Heptane) was 91.8 Area %. For the same compound, the “Area % t = 10 min” value ([1]; solvent IPAc) was “*81.6 Area %”, the “Area % t = 2 h” value ([1]; solvent IPAc) was 93.3 Area % and the “Area % t = 17 h” value ([1]; solvent IPAc) was 90.4 Area %. The “Area % t = 10 min” value ([1]; solvent MTBE) was 92.9 Area %, the “Area % t = 2 h” value ([1]; solvent MTBE) was “*81.6 Area %” and the “Area % t = 17 h” value ([1]; solvent MTBE) was 87.2 Area %. The “Area % t = 10 min” value ([1]; solvent MeCN) was 87.4 Area %, the “Area % t = 2 h” value ([1]; solvent MeCN) was 79.2 Area % and the “Area % t = 17 h” value ([1]; solvent MeCN) was 65.5 Area %. For the same compound, the “Area % t = 10 min” value ([1]; solvent THF) was 90.0 Area %, the “Area % t = 2 h” value ([1]; solvent THF) was 83.7 Area % and the “Area % t = 17 h” value ([1]; solvent THF) was 63.7 Area %. The “Decomposition when suspended in THF” value ([1]; suspended in THF for a period of time (e.g., >10 h)) was “Decomposition of compound (II) was found to occur”.

For O=C(NOC[C@H](O)CO)c1ccc(F)c(F)c1Nc1ccc(I)cc1F [PD0325901], the Side effects exhibited [2] is given as “neurological side effects associated with ataxia, confusion, and syncope; also recorded: one or more neurological side effects associated with ataxia, confusion, and syncope”.
